Reference: PMC7312762, “Acetylcholinesterase Inhibition of Diversely Functionalized Quinolinones for Alzheimer’s Disease Therapy” (International Journal of Molecular Sciences, 2020)
Read-outs that look alike come from different tables or passages of the source.

Tests used:
Format in all cases: biochemical
[1] = molecular target: T1, human recombinant acetylcholinesterase (hrAChE) (Homo sapiens, UniProt P22303); assay: hrAChE inhibition, Ellman method (screening and IC50); conditions: for hrAChE inhibition (screening, in words): screening at 1 and 10 µM; for IC50: mean ± standard error of the mean, triplicate determinations; for inhibition at 10 µM: read-out: hrAChE inhibition
T1 construct: made in house; host or cells: Hek293 derivatives (transient transfection, pcDNA3.4), collected from culture supernatant
T1 sequence (P22303 32-614): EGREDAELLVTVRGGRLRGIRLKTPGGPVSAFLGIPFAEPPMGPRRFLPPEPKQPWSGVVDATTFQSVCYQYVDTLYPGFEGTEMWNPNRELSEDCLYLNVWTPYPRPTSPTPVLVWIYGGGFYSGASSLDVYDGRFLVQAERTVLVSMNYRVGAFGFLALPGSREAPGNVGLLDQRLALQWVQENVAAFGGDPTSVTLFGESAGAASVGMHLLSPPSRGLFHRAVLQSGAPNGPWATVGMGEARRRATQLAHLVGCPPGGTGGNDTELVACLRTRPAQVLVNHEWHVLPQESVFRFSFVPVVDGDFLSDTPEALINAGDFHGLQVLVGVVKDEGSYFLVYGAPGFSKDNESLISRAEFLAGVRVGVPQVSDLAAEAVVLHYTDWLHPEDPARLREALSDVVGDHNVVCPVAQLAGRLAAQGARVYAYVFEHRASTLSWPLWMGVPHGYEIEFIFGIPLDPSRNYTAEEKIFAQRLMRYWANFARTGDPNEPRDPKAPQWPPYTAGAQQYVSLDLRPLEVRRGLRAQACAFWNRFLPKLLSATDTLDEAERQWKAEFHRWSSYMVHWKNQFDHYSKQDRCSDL
Description: (§1) The hrAChE and hrBuChE were prepared as recombinant proteins at the University of Hradec Kralove. For their production, the mammalian expression system was used. Briefly, the DNA sequence encoding human AChE and BuChE was obtained from UniProtKB Server (www.uniprot.org, accession numbers: P22303 and P06276) and de novo synthesized as GeneArt Strings DNA fragments by GeneArt Gene Synthesis Service (Thermo Fisher Scientific, Pardubice, Czech Republic). The DNA fragments were PCR-amplified using gene-specific primers, adding the DNA sequence for C-terminal 6× His-tag. The amplicons were inserted into the mammalian pcDNA3.4 vector by TOPO cloning technology, and the final DNA constructs were verified by Sanger sequencing (ABI PRISM 3130xl). For protein expression, the DNA constructs were transiently transfected into Hek293 derivatives. Recombinant proteins were collected from culture supernatant 6 days later and stored at −80 °C for further purification.
(§2) The hrAChE and hrBuChE were purified using a NGC Medium-Pressure Chromatography System (Bio-Rad, USA). The total volume of 6–8 mL of medium containing secreted protein was desalted using 5 mL HiTrap Desalting column (GE Healthcare, Prague, Czech Republic) equilibrated with buffer A (20 mM sodium phosphate buffer, 150 mM NaCl, 15 mM imidazole, and 20% glycerol; pH 7.4). Acquired supernatant was loaded onto a 1 mL HisTrap FF column (GE Healthcare, Prague, Czech Republic) equilibrated with buffer A. Captured proteins were eluted with buffer B (20 mM sodium phosphate buffer, 150 mM NaCl, 500 mM imidazole, and 20% glycerol; pH 7.4). Imidazole was subsequently removed by repeated centrifugation in Amicon Ultra-4 (Ultracel-10K) tube (Merck Millipore). Protein concentration was determined by linearized Bradford method adapted for 96-well plate.
(§3) The catalytic activity of enzymes was determined by standard Ellman method adapted for 96-well plates. […]. The mixture was pre-incubated at 37 °C for 15 min, and subsequently substrate acetylthiocholine iodide (ATChI) or butyrylthiocholine iodide (BuTChI) was added to the final concentration of 1000 µM. The final volume of reaction was 100 µL. The product formed during the reaction 5-thio-2-nitrobenzoic acid (TNB) was determined by following its absorbance at 436 nm. The catalytic activity was evaluated as amount of product (%) formed by enzyme after 10 min of incubation at 37 °C. IC50 values of individual compounds were determined by non-linear regression using GraphPad Prism 7.

[2] = molecular target: T2, human recombinant butyrylcholinesterase (hrBuChE) (Homo sapiens, UniProt P06276); assay: hrBuChE inhibition, Ellman method (screening and IC50); conditions: for inhibition at 10 µM: at 10 µM concentration; for IC50: mean ± standard error of the mean, triplicate determinations
T2 construct: made in house; host or cells: Hek293 derivatives (transient transfection, pcDNA3.4), collected from culture supernatant
T2 sequence (P06276 29-602): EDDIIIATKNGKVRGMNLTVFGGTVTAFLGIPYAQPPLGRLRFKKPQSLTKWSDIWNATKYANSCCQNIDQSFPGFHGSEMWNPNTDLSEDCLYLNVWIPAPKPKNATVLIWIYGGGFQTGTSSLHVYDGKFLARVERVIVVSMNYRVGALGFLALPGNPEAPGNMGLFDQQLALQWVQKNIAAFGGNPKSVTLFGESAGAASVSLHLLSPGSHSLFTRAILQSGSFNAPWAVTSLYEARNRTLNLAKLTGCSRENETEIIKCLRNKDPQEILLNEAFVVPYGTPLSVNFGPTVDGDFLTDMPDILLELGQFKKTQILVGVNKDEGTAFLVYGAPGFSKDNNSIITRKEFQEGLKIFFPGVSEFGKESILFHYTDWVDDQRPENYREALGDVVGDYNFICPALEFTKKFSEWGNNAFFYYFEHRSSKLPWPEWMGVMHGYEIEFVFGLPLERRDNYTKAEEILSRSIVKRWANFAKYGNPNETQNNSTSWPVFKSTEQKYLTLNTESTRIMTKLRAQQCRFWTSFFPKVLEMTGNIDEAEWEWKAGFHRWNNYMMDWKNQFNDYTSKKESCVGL
Description: as §1, §2, §3

hrAChE = molecular target: T3, hrAChE (Homo sapiens, UniProt P22303); assay: Inhibition kinetics of hrAChE (Lineweaver-Burk)
T3 construct: made in house; host or cells: Hek293 derivatives (transient transfection, pcDNA3.4), collected from culture supernatant
T3 sequence (P22303 32-614): as the sequence (P22303 32-614) above
Description: Compound with the highest inhibition potential against hrAChE was further analysed regarding its inhibition kinetics parameters (inhibition mechanism and inhibitory constant). […]. Inhibition mechanism and kinetic constant were determined by non-linear regression and double reciprocal method by Lineweaver-Burk using GraphPad Prism 7.

In the case of `CN1CCN(CCCCOc2ccc3c(c2)NC(=O)CC3)CC1` [DQN3, 7-[4-(4-Methylpiperazin-1-yl)butoxy]-3,4-dihydroquinolin-2(1H)-one], the “hrAChE inhibition (screening, in words)” value [1] is reported as “low inhibition percentage”.

With `CC(C)N1CCN(CCCCOc2ccc3c(c2)NC(=O)CC3)CC1` [DQN7, 7-[4-(4-Isopropylpiperazin-1-yl)butoxy]-3,4-dihydroquinolin-2(1H)-one] the “Selectivity Index IC50 (hrBuChE)/IC50 (hrAChE)” value (shortened to “Selectivity Index IC50”) [1] was 11, the IC50 [1] was 1580 ± 150 nM and the inhibition at 10 µM [1] was 88 to 95%. It also gave an inhibition at 10 µM [2] of 45 to 65% and an IC50 [2] of 16700 ± 460 nM.

With `CN1CCN(CCCCOc2ccc3ccc(=O)[nH]c3c2)CC1` [QN4, 7-[4-(4-Methylpiperazin-1-yl)butoxy]quinolin-2(1H)-one] the “hrAChE inhibition (screening, in words)” value [1] was “low inhibition percentage”.

For `CN1CCN(CCCCCOc2ccc3ccc(=O)[nH]c3c2)CC1` [QN5, 7-[5-(4-Methylpiperazin-1-yl)pentyloxy]quinolin-2(1H)-one], the “hrAChE inhibition (screening, in words)” value [1] was “low inhibition percentage”.

For `CC(C)N1CCN(CCCCOc2ccc3ccc(=O)[nH]c3c2)CC1` [QN8, 7-[4-(4-Isopropylpiperazin-1-yl)butoxy]quinolin-2(1H)-one], the “Selectivity Index IC50” value [1] was 44, the inhibition at 10 µM ([1]; at 10 µM concentration) was 88 to 95% and the IC50 [1] was 290 ± 20 nM. For the same compound, the “type of hrAChE inhibition” value (hrAChE; kinetic experiments) was “non-competitive”, the Ki (hrAChE; non-competitive inhibition, ATChI 25-2000 µM) was 79 nM and the inhibition at 10 µM [2] was 45 to 65%. It also gave an IC50 [2] of 12700 ± 450 nM.

With `CC(C)N1CCN(CCCCCOc2ccc3ccc(=O)[nH]c3c2)CC1` [QN9, 7-[5-(4-Isopropylpiperazin-1-yl)pentyloxy]quinolin-2(1H)-one] the “Selectivity Index IC50” value [1] was 7, the inhibition at 10 µM ([1]; at 10 µM concentration) was 88 to 95% and the IC50 [1] was 960 ± 40 nM. It also gave an inhibition at 10 µM [2] of 45 to 65% and an IC50 [2] of 6700 ± 320 nM.
